Source: publication PMC12344693, “Human Milk Oligosaccharides Multivalently Presented on Defined Synthetic Neo-Glycoproteins Are Nanomolar Ligands of Tandem-Repeat Galectins” (Biomacromolecules, 2025)
“And” between values parts separate entries of the source, which are not always exact repeats. Equal entries are not always repeated. Where two headings read alike, the source gives them in different places.

Key:
[1] = target: T1, Gal-4 (Homo sapiens, UniProt P56470); design: method as in previously published by us; settings: competitive ELISA vs immobilized ASF; footnote b; ref previously published by us; cited from earlier work
T1 construct: Full-length recombinant human galectins (Gal-1, Gal-3, Gal-4, Gal-8, and Gal-9) for ELISA assays; made in house; host or cells: E. coli Rosetta 2(DE3)pLysS
T1 sequence (P56470 1-323): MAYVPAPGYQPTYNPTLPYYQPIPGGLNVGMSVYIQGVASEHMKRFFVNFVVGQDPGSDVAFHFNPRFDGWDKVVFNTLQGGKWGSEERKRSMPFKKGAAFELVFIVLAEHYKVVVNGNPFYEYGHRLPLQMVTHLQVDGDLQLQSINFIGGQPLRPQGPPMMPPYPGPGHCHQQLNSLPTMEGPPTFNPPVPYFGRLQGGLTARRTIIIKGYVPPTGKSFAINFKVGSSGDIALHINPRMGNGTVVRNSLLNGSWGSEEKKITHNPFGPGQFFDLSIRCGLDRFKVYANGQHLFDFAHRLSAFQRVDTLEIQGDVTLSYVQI

[2] = target: Gal-1 (Homo sapiens, UniProt P09382, C3S); experiment: competitive ELISA, inhibition of galectin binding to immobilized asialofetuin
Chain of Gal-1 (P09382 whole entry C3S): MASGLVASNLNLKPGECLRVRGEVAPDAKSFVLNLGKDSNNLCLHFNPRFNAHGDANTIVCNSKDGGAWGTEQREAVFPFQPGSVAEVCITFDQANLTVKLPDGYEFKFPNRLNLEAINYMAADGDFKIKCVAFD
Protocol: (§1) The inhibitory potential of the prepared glycan library and the respective multivalent neo-glycoproteins with Gal-1, -3, -4, -8, and -9 was evaluated using a competitive ELISA assay as described by Vašíček et al. Asialofetuin (ASF; 0.1 μM in PBS, 50 μL/well) was immobilized onto microtiter plates (Nunc Immuno Sorb, ThermoFisher Scientific, USA) overnight at 4 °C. Wells were subsequently washed three times with PBS containing 0.05%, v/v, Tween-20 (250 μL/wash). Each assay step was followed by a washing step to ensure the thorough removal of unbound reagents. Blocking was performed using 2%, w/v, BSA in PBS (250 μL/well) for 1 h at room temperature. Serial dilutions of the inhibitors prepared in EPBS buffer (PBS containing 2 mM EDTA) were incubated with a constant concentration of galectin (2.5 μM Gal-1, Gal-3, and Gal-4; 0.5 μM Gal-8 and Gal-9) for 2 h. […] Residual galectin bound to ASF was detected using the anti-His-tag antibody conjugated to horseradish peroxidase (Santa Cruz Biotechnology, 1:999 dilution in PBS). Detection was achieved by adding 50 μL of TMB One substrate solution (Kem-En-Tech, Denmark), which developed a blue color that turned yellow upon the addition of 50 μL of 3 M HCl. Absorbance at 450 nm was measured using a microplate reader (Sunrise, Tecan Group Ltd., Switzerland) reflecting the amount of galectin bound to the wells. Half-maximal inhibitory concentration (IC50) values were calculated by nonlinear regression (dose–response inhibition with variable slope) of sigmoidal curves using GraphPad Prism version 8.4.3 (GraphPad Software, USA).
(§2) Serially diluted ligands and NGPs were incubated with individual galectin species in the wells coated with asialofetuin (ASF). The remaining galectin bound to the immobilized ASF was detected using an anti-His6 antibody.

[3] = target: Gal-3 (Homo sapiens, UniProt P17931); experiment: as above
Chain of Gal-3 (P17931 whole entry): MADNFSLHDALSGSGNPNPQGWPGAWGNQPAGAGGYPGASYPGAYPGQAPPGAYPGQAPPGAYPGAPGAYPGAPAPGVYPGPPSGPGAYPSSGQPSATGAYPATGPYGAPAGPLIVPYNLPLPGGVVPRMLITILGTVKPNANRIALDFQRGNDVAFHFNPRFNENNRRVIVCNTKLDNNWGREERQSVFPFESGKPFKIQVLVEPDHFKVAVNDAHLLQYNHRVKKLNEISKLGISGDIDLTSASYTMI
Protocol: as §1, §2

[4] = target: T2, Gal-9 (Homo sapiens, UniProt O00182, A222P/DEL149-219); experiment: as above; settings: competitive ELISA vs immobilized ASF; 0.5 μM Gal-9; at least quadruplicate
T2 construct: Full-length recombinant human galectins (Gal-1, Gal-3, Gal-4, Gal-8, and Gal-9) for ELISA assays; made in house; host or cells: E. coli Rosetta 2(DE3)pLysS
T2 sequence (O00182 with tags, fused parts or gaps DEL149-219/A222P): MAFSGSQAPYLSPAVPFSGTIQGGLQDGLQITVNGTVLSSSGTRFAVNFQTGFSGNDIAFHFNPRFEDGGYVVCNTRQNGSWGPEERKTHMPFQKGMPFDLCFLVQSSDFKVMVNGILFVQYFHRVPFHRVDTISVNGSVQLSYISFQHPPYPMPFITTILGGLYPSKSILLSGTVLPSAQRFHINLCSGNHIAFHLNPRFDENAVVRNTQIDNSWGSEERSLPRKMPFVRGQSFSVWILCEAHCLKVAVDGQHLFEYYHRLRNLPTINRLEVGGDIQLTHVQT
Protocol: as §1, §2

[5] = target: T3, Gal-8 (Homo sapiens, UniProt O00214); experiment: as above; settings: competitive ELISA vs immobilized ASF; 0.5 μM Gal-8; at least quadruplicate
T3 construct: Full-length recombinant human galectins (Gal-1, Gal-3, Gal-4, Gal-8, and Gal-9) for ELISA assays; made in house; host or cells: E. coli Rosetta 2(DE3)pLysS
T3 sequence (O00214 1-317): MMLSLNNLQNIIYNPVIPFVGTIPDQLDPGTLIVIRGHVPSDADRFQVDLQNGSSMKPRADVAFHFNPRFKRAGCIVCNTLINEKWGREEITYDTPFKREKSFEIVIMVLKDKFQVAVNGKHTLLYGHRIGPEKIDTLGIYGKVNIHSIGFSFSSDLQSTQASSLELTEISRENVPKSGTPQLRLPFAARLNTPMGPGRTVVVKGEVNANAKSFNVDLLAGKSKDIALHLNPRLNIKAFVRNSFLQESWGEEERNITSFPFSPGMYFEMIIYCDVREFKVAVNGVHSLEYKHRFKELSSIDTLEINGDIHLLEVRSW
Protocol: as §1, §2

[6] = target: T1, Gal-4; experiment: as above; settings: competitive ELISA vs immobilized ASF; 2.5 μM Gal-4; at least quadruplicate
Protocol: as §1, §2

SMILES | IC50 [1] [µM] | IC50 [2] [µM] | IC50 [3] [µM] | IC50 [4] | IC50 [5] [µM] | IC50 [6] [µM] | IC50 ([3]; read-out: IC50 Gal-3, Table S9, competitive ELISA vs immobilized ASF, […] Gal-3, unit inferred) [µM]
CC(C)(C)OC(=O)NCCNC(=S)N[C@@H]1O[C@H](CO)[C@@H](O[C@@H]2O[C@H](CO)[C@H](O)[C@H](O)[C@H]2O)[C@H](O)[C@H]1O [Compound 1, (tert-butoxycarbonylamino)ethylthioureidyl β-D-galactopyranosyl-(1→4)-β-D-glucopyranoside] | 2520 ± 180 | 286 ± 23 | 136 ± 18 | 2180 ± 670 µM | 2870 ± 470 |  | 
CC(=O)N[C@H]1[C@H](O[C@H]2[C@@H](O)[C@@H](CO)O[C@@H](O[C@H]3[C@H](O)[C@@H](O)[C@H](NC(=S)NCCNC(=O)OC(C)(C)C)O[C@@H]3CO)[C@@H]2O)O[C@H](CO)[C@@H](O)[C@@H]1O[C@@H]1O[C@H](CO)[C@H](O)[C@H](O)[C@H]1O [Compound 3, (tert-Butoxycarbonylamino)ethylthioureidyl β-D-galactopyranosyl-(1→3)-2-acetamido-2-deoxy-β-D-glucopyranosyl-(1→3)-β-D-galactopyranosyl-(1→4)-β-D-glucopyranoside] |  | > 500 | 15.2 ± 1 | 230 ± 43 µM | 820 ± 140 | 108 ± 16 | 
CC(=O)N[C@H]1[C@H](O[C@H]2[C@@H](O)[C@@H](CO)O[C@@H](O[C@H]3[C@H](O)[C@@H](O)[C@H](NC(=S)NCCNC(=O)OC(C)(C)C)O[C@@H]3CO)[C@@H]2O)O[C@H](CO)[C@@H](O[C@@H]2O[C@H](CO)[C@H](O)[C@H](O)[C@H]2O)[C@@H]1O [Compound 4, (tert-Butoxycarbonylamino)ethylthioureidyl β-D-galactopyranosyl-(1→4)-2-acetamido-2-deoxy-β-D-glucopyranosyl-(1→3)-β-D-galactopyranosyl-(1→4)-β-D-glucopyranoside] | 620 ± 100 | 436 ± 41 | 7.3 ± 1.6 | 170 µM and 168 µM | 130 ± 30 |  | 
CC(=O)N[C@H]1[C@H](O[C@H]2[C@@H](O)[C@@H](CO)O[C@@H](O[C@H]3[C@H](O)[C@@H](O)[C@H](NC(=S)NCCNC(=O)OC(C)(C)C)O[C@@H]3CO)[C@@H]2O)O[C@H](CO)[C@@H](O[C@@H]2O[C@H](CO)[C@H](O)[C@H](O)[C@H]2NC(C)=O)[C@@H]1O [Compound 5, (tert-Butoxycarbonylamino)ethylthioureidyl 2-acetamido-2-deoxy-β-D-galactopyranosyl-(1→4)-2-acetamido-2-deoxy-β-D-glucopyranosyl-(1→3)-β-D-galactopyranosyl-(1→4)-2-β-D-glucopyranoside] |  | 435 ± 102 | 2.2 ± 1.3 | 326 ± 26 µM | 75 ± 9 | 1620 ± 260 | 
CC(=O)N[C@@H]1[C@@H](O)[C@H](O[C@@H]2O[C@H](CO)[C@H](O)[C@H](O)[C@H]2O)[C@@H](CO)O[C@H]1NC(=S)NCCNC(=O)OC(C)(C)C [Compound 7, Galβ4GlcNAc-tBoc] |  | 79 ± 9 | 47 ± 6 | 2840 ± 650 µM | 18700 | 8630 ± 530 | 
CC(=O)N[C@@H]1[C@@H](O)[C@H](O[C@@H]2O[C@H](CO)[C@H](O)[C@H](O[C@@H]3O[C@H](CO)[C@@H](O)[C@H](O[C@@H]4O[C@H](CO)[C@H](O)[C@H](O)[C@H]4O)[C@H]3NC(C)=O)[C@H]2O)[C@@H](CO)O[C@H]1NC(=S)NCCNC(=O)OC(C)(C)C [Compound 9, (tert-Butoxycarbonylamino)ethylthioureidyl β-D-galactopyranosyl-(1→3)-2-acetamido-2-deoxy-β-D-glucopyranosyl-(1→3)-β-D-galactopyranosyl-(1→4)-2-acetamido-2-deoxy-β-D-glucopyranoside] |  | > 500 |  | > 5000 µM | > 5000 | 2380 ± 670 | 27 ± 4
CC(=O)N[C@@H]1[C@@H](O)[C@H](O[C@@H]2O[C@H](CO)[C@H](O)[C@H](O[C@@H]3O[C@H](CO)[C@@H](O[C@@H]4O[C@H](CO)[C@H](O)[C@H](O)[C@H]4O)[C@H](O)[C@H]3NC(C)=O)[C@H]2O)[C@@H](CO)O[C@H]1NC(=S)NCCNC(=O)OC(C)(C)C [Compound 10, (tert-Butoxycarbonylamino)ethylthioureidyl β-D-galactopyranosyl-(1→4)-2-acetamido-2-deoxy-β-D-glucopyranosyl-(1→3)-β-D-galactopyranosyl-(1→4)-2-acetamido-2-deoxy-β-D-glucopyranoside] |  | 106 ± 7 | 12 ± 1 | 52 ± 23 µM | 406 ± 46 | 2390 ± 490 | 
CC(=O)N[C@@H]1[C@@H](O)[C@H](O[C@@H]2O[C@H](CO)[C@H](O)[C@H](O[C@@H]3O[C@H](CO)[C@@H](O[C@@H]4O[C@H](CO)[C@H](O)[C@H](O)[C@H]4NC(C)=O)[C@H](O)[C@H]3NC(C)=O)[C@H]2O)[C@@H](CO)O[C@H]1NC(=S)NCCNC(=O)OC(C)(C)C [Compound 11, (tert-Butoxycarbonylamino)ethylthioureidyl 2-acetamido-2-deoxy-β-D-galactopyranosyl-(1→4)-2-acetamido-2-deoxy-β-D-glucopyranosyl-(1→3)-β-D-galactopyranosyl-(1→4)-2-acetamido-2-deoxy-β-D-glucopyranoside] |  | 98 ± 22 | 2.7 ± 2.4 | 260 ± 75 µM | 270 ± 85 | 2010 ± 1000 | 
